For one assay, the system named is VRE ATCC700221. Description: Anti-bacterial activity, Bioscreen C growth curve: VRE. As to conditions: Enterococcus, 35° C., 16 hours, negative control = 100, read-out: % of growth at 25 PPM compared to the negative control, VRE ATCC700221. The format is cell-based, vancomycin-resistant Enterococcus (VRE). Here is the method:
(§1) For the determination of the anti-bacterial and anti-fungal activity the Bioscreen C Analyser Labsystems, Finland, was used. This is an automated reader-incubator. It measures growth continuously by vertical photometry (optical density), processes the data and provides a print out of the results. The area under the growth curve is automatically determined via the Biolink software.
(§2) The inoculum size of the bacteria is standardized to approximately 5×10^5 CFU/ml.
(§3) For bacteria, the 100-honey-well plates containing test chemical, Mueller-Hinton broth and inoculum (=sample) are incubated at 35° C. for 16 hours. Also wells without inoculum are incubated (=blanco). Yeasts are incubated 35° C. for 24 hours in RPMI 1640+MOPS buffer at 165 mM. Moulds also in RPMI 1640+MOPS buffer at 165 mM are incubated 25° C. for 5 days. All micro-organisms are screened against a known concentration of the reference antibiotics or antimycotics such as vancomycin, penicillin G, gentamicin or amphotericin B. The growth curve and the area under the growth curve can be determined using the Biolink software; this is illustrated in FIG. 1.
(§4) The area of the blanco is subtracted from the area of the sample, this number (delta) gives us an indication of the biological activity of the molecules tested and can be expressed as a % of growth at a specific dose compared to a negative control that has a value of 100, illustrated in FIG. 2. Screening of each dose of a specific compound is repeated 5 times. The dose used for all new molecules in all tests is 25 PPM or 25 μg/ml.
(§5) In Table 4 the results of the anti-bacterial activity is given for the new molecules. The micro-organisms used are Staphylococcus aureus, MRSA, VRE, Enterococcus faecalis, Salmonella typhimurium and Pseudomonas aeruginosa.
Regarding `CO[C@@H]1[C@@H](OC)[C@H](Cc2ccccc2)O[C@@H]2CO[C@@H](c3ccccc3)O[C@@H]12` [KPE00001019], the activity at 25 ppm was 97%.

The next assay relates to P. aeruginosa ATCC27853 LMG16217. Description: Anti-bacterial activity, Bioscreen C growth curve: P. aeruginosa. Type of assay: cell-based, Pseudomonas aeruginosa. As to conditions: Pseudomonas aeruginosa; 25 PPM; 35° C., 16 hours; negative control = 100; read-out: % of growth at 25 PPM compared to the negative control, P. aeruginosa ATCC27853 LMG16217. As for the experimental part: as §1, §2, §3, §4, §5
As for `CO[C@@H]1[C@@H](OC)[C@H](Cc2ccccc2)O[C@@H]2CO[C@@H](c3ccccc3)O[C@@H]12` [KPE00001019], the activity at 25 ppm came to 105%.

In another assay the test system is HIV-2 (ROD). Description: Anti-viral activity: HIV-2-induced cytopathicity in human CEM cell cultures. The format is cell-based. As to conditions: Human immunodeficiency virus 2, CCRF-CEM; concentration required to inhibit HIV-induced cytopathicity in human CEM cell cultures by 50%. A general note: Damage to the host cells serves as the signal in cytopathic effect assays.
In general, EC50 refers to the midpoint of the concentration-response curve. In the case of `CO[C@@H]1[C@@H](OC)[C@H](Cc2ccccc2)O[C@@H]2CO[C@@H](c3ccccc3)O[C@@H]12` [KPE00001019], the EC50 was > 100 µg/mL.

Another assay concerns VZV YS. The assay can be described thus: Anti-viral activity: VZV-induced plaque formation in HEL cell cultures, YS strain. Type of assay: cell-based, varicella zoster virus (VZV). As to conditions: Human alphaherpesvirus 3, VZV-induced plaque formation in human embryonic lung HEL cell cultures, 50%.
For `CO[C@@H]1[C@@H](OC)[C@H](Cc2ccccc2)O[C@@H]2CO[C@@H](c3ccccc3)O[C@@H]12` [KPE00001019], the EC50 is > 5 µg/mL.

Another assay has as its system E. faecalis ATTC29212 LMG 8222. The assay can be described thus: Anti-bacterial activity, Bioscreen C growth curve: E. faecalis. Type of assay: cell-based. As to conditions: Enterococcus faecalis, LMG8222, 35° C., 16 hours, negative control = 100, read-out: % of growth at 25 PPM compared to the negative control, E. faecalis ATTC29212 LMG 8222. Here is the method: as §1, §2, §3, §4, §5
`CO[C@@H]1[C@@H](OC)[C@H](Cc2ccccc2)O[C@@H]2CO[C@@H](c3ccccc3)O[C@@H]12` [KPE00001019]: the activity at 25 ppm was 104%.

The next assay concerns VZV OKA. The assay can be described thus: microbe, parasite or virus in culture. As to conditions: Human alphaherpesvirus 3, HEL, read-out: EC50 VZV (HEL) OKA. Type of assay: cell-based, varicella zoster virus (VZV).
Take `CO[C@@H]1[C@@H](OC)[C@H](Cc2ccccc2)O[C@@H]2CO[C@@H](c3ccccc3)O[C@@H]12` [KPE00001019]: the EC50 was > 5 µg/mL.

In another assay the test system is human T-lymphocyte cells (Molt4/C8). The assay can be described thus: Cytostatic activity: inhibition of proliferation of Molt4/C8 cells. As to conditions: Molt4/C8, 50% inhibitory concentration, cell proliferation, read-out: IC50 Molt4/C8. The format is cell-based. Here is the method: (§6) The compounds were tested for anti-tumor activity via the inhibitory effects on the proliferation of murine leukemia cells (L1210/0), murine mammary carcinoma cells (FM3A), human T-lymphocyte cells (Molt4/C8, CEM/0) and human cervix carcinoma cells (HeLa).
For `CO[C@@H]1[C@@H](OC)[C@H](Cc2ccccc2)O[C@@H]2CO[C@@H](c3ccccc3)O[C@@H]12` [KPE00001019], the IC50 was ≥ 200 µg/mL.

The next assay relates to HSV-1 (KOS). Description: Anti-viral activity: HSV-1-induced cytopathicity in human embryo fibroblast E6SM cell cultures. The format is cell-based, herpes simplex virus (HSV). As to conditions: Human alphaherpesvirus 1, 50%.
In the case of `CO[C@@H]1[C@@H](OC)[C@H](Cc2ccccc2)O[C@@H]2CO[C@@H](c3ccccc3)O[C@@H]12` [KPE00001019], the EC50 is > 80 µg/mL.

The test system of another assay is murine mammary carcinoma cells (FM3A). The assay can be described thus: Cytostatic activity: inhibition of proliferation of FM3A cells. As to conditions: Mus musculus, 50% inhibitory concentration, cell proliferation, read-out: IC50 FM3A/0. The format is cell-based. Here is the method:
as §6
For `CO[C@@H]1[C@@H](OC)[C@H](Cc2ccccc2)O[C@@H]2CO[C@@H](c3ccccc3)O[C@@H]12` [KPE00001019], the IC50 is > 200 µg/mL.

Another assay concerns VV. Description: microbe, parasite or virus in culture. The format is cell-based. As to conditions: Orthopoxvirus vaccinia, E6SM, read-out: EC50 VV (E6SM).
As to `CO[C@@H]1[C@@H](OC)[C@H](Cc2ccccc2)O[C@@H]2CO[C@@H](c3ccccc3)O[C@@H]12` [KPE00001019], the EC50 was > 80 µg/mL.

The next assay deals with HIV-1 (IIIB). Description: microbe, parasite or virus in culture. The format is cell-based. As to conditions: Human immunodeficiency virus 1, IIIB, CCRF-CEM; concentration required to inhibit HIV-induced cytopathicity in human CEM cell cultures by 50%.
Turning to `CO[C@@H]1[C@@H](OC)[C@H](Cc2ccccc2)O[C@@H]2CO[C@@H](c3ccccc3)O[C@@H]12` [KPE00001019], the EC50 was > 100 µg/mL.

The test system of another assay is MRSA ATCC33591. Description: Anti-bacterial activity, Bioscreen C growth curve: MRSA. The format is cell-based, methicillin-resistant Staphylococcus aureus (MRSA). As to conditions: Staphylococcus aureus, ATCC 33591 / LMG10147 / MRSA; 25 PPM; 35° C., 16 hours; negative control = 100; read-out: % of growth at 25 PPM compared to the negative control, MRSA ATCC33591 LMG10147. Here is the method: as §1, §2, §3, §4, §5
For the compound `CO[C@@H]1[C@@H](OC)[C@H](Cc2ccccc2)O[C@@H]2CO[C@@H](c3ccccc3)O[C@@H]12` [KPE00001019], the activity at 25 ppm was found to be 104%.

A further assay concerns S. typhimurium ATTC700408. The assay can be described thus: Anti-bacterial activity, Bioscreen C growth curve: S. typhimurium. The format is cell-based. As to conditions: Salmonella enterica, LMG16217 / TYPHIMURIUM, 35° C., 16 hours, negative control = 100, read-out: % of growth at 25 PPM compared to the negative control, S. typhimurium ATTC700408 LMG16217. As for the experimental part:
as §1, §2, §3, §4, §5
As to `CO[C@@H]1[C@@H](OC)[C@H](Cc2ccccc2)O[C@@H]2CO[C@@H](c3ccccc3)O[C@@H]12` [KPE00001019], the activity at 25 ppm was 94.3%.

Another assay deals with S. aureus ATTC29213 LMG10147. The assay can be described thus: Anti-bacterial activity, Bioscreen C growth curve: S. aureus. Type of assay: cell-based. As to conditions: Staphylococcus aureus, 35° C., 16 hours, negative control = 100, read-out: % of growth at 25 PPM compared to the negative control, S. aureus ATTC29213 LMG10147. Here is the method: as §1, §2, §3, §4, §5
In the case of `CO[C@@H]1[C@@H](OC)[C@H](Cc2ccccc2)O[C@@H]2CO[C@@H](c3ccccc3)O[C@@H]12` [KPE00001019], the activity at 25 ppm worked out at 109%.

Another assay relates to human cervix carcinoma cells (HeLa). The assay can be described thus: Cytostatic activity: inhibition of proliferation of HeLa cells. Type of assay: cell-based. As to conditions: 50% inhibitory concentration, cell proliferation. As for the experimental part: as §6
On to `CO[C@@H]1[C@@H](OC)[C@H](Cc2ccccc2)O[C@@H]2CO[C@@H](c3ccccc3)O[C@@H]12` [KPE00001019], for which the IC50 was > 200 µg/mL.
